Reference: ChEMBL document CHEMBL1140403, “Carbonic anhydrase inhibitors: inhibition of cytosolic/tumor-associated carbonic anhydrase isozymes I, II, and IX with benzo[b]thiophene 1,1-dioxide sulfonamides” (Bioorg Med Chem Lett, 2005)

What was measured:
Carbonic anhydrase 2 = Carbonic anhydrase 2 (Homo sapiens, UniProt P00918)
Description: Inhibitory activity against human cloned Carbonic anhydrase II by the CO2 hydration method

Carbonic anhydrase 9 = Carbonic anhydrase 9 (Homo sapiens, UniProt Q16790)
Description: Inhibitory activity against catalytic domain of human cloned Carbonic anhydrase IX by the CO2 hydration method

Carbonic anhydrase 1 = Carbonic anhydrase 1 (Homo sapiens, UniProt P00915)
Chain of Carbonic anhydrase 1 (P00915 whole entry): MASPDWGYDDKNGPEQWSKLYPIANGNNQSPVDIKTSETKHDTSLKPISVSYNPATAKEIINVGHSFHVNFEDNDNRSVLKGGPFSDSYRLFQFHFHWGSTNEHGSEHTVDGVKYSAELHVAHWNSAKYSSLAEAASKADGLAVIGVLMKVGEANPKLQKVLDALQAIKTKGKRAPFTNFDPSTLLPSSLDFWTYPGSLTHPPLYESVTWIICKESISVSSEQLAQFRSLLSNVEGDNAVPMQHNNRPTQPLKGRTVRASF
Description: Inhibitory activity against human cloned Carbonic anhydrase I by the CO2 hydration method

SMILES	Ki (Carbonic anhydrase 2) [nM]	Ki (Carbonic anhydrase 9) [nM]	Ki (Carbonic anhydrase 1) [nM]
NS(=O)(=O)c1ccc2c(c1)S(=O)(=O)CC2	8.8	10	72
NS(=O)(=O)c1ccc2c(c1)C=CS2(=O)=O	7.4	13	75
NS(=O)(=O)c1ccc2c(c1)S(=O)(=O)C=C2	7.5	15	63
CC1=CS(=O)(=O)c2cc(S(N)(=O)=O)ccc21	8.3	13	85
NS(=O)(=O)c1ccc2c(c1)S(=O)(=O)CC2OCc1ccccc1 (stereo not given)	7.9	2.8	138
O=S1(=O)C=Cc2ccc(S(=O)(=O)NCC3CC3)cc21	475	76	493
O=S1(=O)C=Cc2ccc(S(=O)(=O)NCc3ccccc3)cc21	> 1000	> 1000	> 1000
COc1cccc(NS(=O)(=O)c2ccc3c(c2)C=CS3(=O)=O)c1	> 1000	> 1000	> 1000
CCCCOC1CS(=O)(=O)c2cc(S(N)(=O)=O)ccc21 (stereo not given)	6.3	3.1	104
CCNS(=O)(=O)c1ccc2c(c1)S(=O)(=O)C=C2	436	362	530
